Data reported in patent US20100173873A1, “TREATMENT OF METASTASIZED TUMORS” (Novartis Vaccines and Diagnostics, Inc., priority 2005, published 2010).

System: PC-3M-luc tumor cells
Assay: PC-3M-luc bone metastatic prostate model
Format: in vivo, nude mice
Settings: 15 mg/kg i.p. 3 times per week
Protocol: Cell lines. Metastatic human prostate cell line PC-3M expressing null p53, del PTEN, VEGFR, FGFR and stably transfected with a construct of luciferase were obtained under a licensing agreement with Xenogen.
In vivo efficacy studies. […]. Animals received sterile rodent chow and water ad libitum and were housed in sterile filter-top cages with 12 hour light/dark cycles. All experiments were conducted under the guidelines of the Association for Assessment and Accreditation of Laboratory Animal Care International. PC-3M luc bone metastatic model. Human prostate cancer cell line PC-3M-luc cells (1.5×10^6 cells) stably transfected with a construct of luciferase were injected via intracardiac injections. Bioluminescent imaging (Xenogen's IVIS® imaging system) was used to non-invasively monitor the in vivo growth and metastasis of PC-3M-luc tumors after cell inoculation. Nearly all PC-3M-luc tumor cell-injected animals developed prostate lesions, which were mainly localized in the femur, and mandibles. […]. Mice were monitored daily and were euthanized when moribund.
Immunohistochemistry. Bone (femurs, mandible) samples were decalcified (Protocol™, Fisher Diagnostics, Middletown, Va.). Paraffin blocks were sectioned to […] thickness and placed on positively charged glass slides. Tissues were stained with hematoxylin and eosin for general tissue morphology and identification of PC-3M cells in bone.
Nude mice were inoculated with PC-3M-Luc cells intracardiacally with 1.5×10^6 cells. […]. The PC-3M-luc cell lines were purchased from Xenogen and the mice were imaged using Xenogen's IVIS® imaging system.

## CC(=O)O[C@H]1C(=O)[C@@]2(C)[C@H]([C@H](OC(=O)c3ccccc3)[C@]3(O)C[C@H](OC(=O)[C@H](O)[C@@H](NC(=O)c4ccccc4)c4ccccc4)C(C)=C1C3(C)C)[C@]1(OC(C)=O)CO[C@@H]1C[C@@H]2O [taxol, reference compound]
  Treatment efficacy vs. vehicle: No difference in treatment efficacy
